What all share (type): cell-based
For data set [1], the system named is iPro T cells. In words: T cell maturation in stage 5 medium after stage 4 pre-treatment, flow cytometry. The note with it: pre-treated with UM729 21 days in stage 4 medium, then 14 days stage 5 medium without UM729. On the procedure: On day 21, 35 and 42 of culture iPro T Cells were seeded onto fresh SCT matrix (2.5 μl/cm^2) at a density of 250,000 cells per cm^2. Cells were cultured in T-Cell maturation media either with or without UM729 (0.25-5 μM), with demi-media changes every 3 days for 2 weeks. After 2 weeks of maturation the cells were counted using the NC-250 and phenotyped by flow cytometry using the panel in Table 1. On the day of the assay, the cells were counted, washed twice in FACS Buffer and phenotyped by flow cytometry for T-cell markers.
Background: Flow cytometry measures light scatter and fluorescence of single cells or particles in a stream.

Data set [2] concerns haematopoietic progenitor cells (iPSC derived CD34+ cells). In words: Flow cytometry phenotyping of HPCs differentiated in lymphoid progenitor (stage 4) medium with pyrimidoindole compound. The procedure:
(§1) HPC were then thawed and seeded at 5000 cells per cm^2 in 1 ml of lymphoid progenitor (stage 4; LP) media on the standard SCT's coating (2.5 μL/cm^2). UM729 was added to the culture media in a range of concentrations from 0.25 μM-5 μM. On day 3, 1 mL of LP media with the required concentration of UM729 was added and further demi-media changes were carried out every 3 days, with the required media concentration. Every 14 days cells were removed from culture and counted using NC-250. The cells were then replated on to fresh SCT matrix and UM729 was added to the media at the relevant concentration. Cells were removed from the cultures after 21, 35 and 42 days and phenotyped using the panel in Table 1. At these timepoints cells were either continued on in lymphoid progenitor media with the relevant UM729 concentrations or transferred into T cell maturation conditions. On the day of the assay, the cells were counted, washed twice in FACS Buffer and phenotyped by flow cytometry for T-cell markers.

The subject of data set [3] is iPro T cells. In words: Expansion of iPro T cells in stage 4 medium. Particulars: UM729 0.25 μM to 1.0 μM in stage 4 medium, up to 42 days. The procedure: as §1, with “conditions.” for “conditions. On the day of the assay, the cells were counted, washed twice in FACS Buffer and phenotyped by flow cytometry for T-cell markers.”
Data set [4] relates to iPro T cells. In words: Recovery of iPro T cells from freeze/thaw and culture in stage 5 medium. The note with it: pre-treated with UM729 at 1 μM in stage 4 medium; 7 days in stage 5 medium.
Data set [5] relates to haematopoietic progenitor cells (iPSC derived CD34+ cells). In words: Viability and proliferation of HPCs / iPro T cells cultured with pyrimidoindole compound (cell counts, NC-250). Particulars: for viability of cells: UM729 0.25 μM to 1.0 μM (up to 1 μM). On the procedure:
iPSC cells (HCP1324_c1A12) were differentiated to day 16, using our in-house Proprietary media. HPC (CD34+ cells) were isolated using MACS and a cryopreserved bank of these cells was created for further differentiation into iT-Cells. HPC were then thawed and seeded at 5000 cells per cm^2 in 1 ml of lymphoid progenitor (stage 4; LP) media on the standard SCT's coating (2.5 μL/cm^2). UM729 was added to the culture media in a range of concentrations from 0.25 μM-5 μM. On day 3, 1 mL of LP media with the required concentration of UM729 was added and further demi-media changes were carried out every 3 days, with the required media concentration. Every 14 days cells were removed from culture and counted using NC-250. The cells were then replated on to fresh SCT matrix and UM729 was added to the media at the relevant concentration. Cells were removed from the cultures after 21, 35 and 42 days and phenotyped using the panel in Table 1. At these timepoints cells were either continued on in lymphoid progenitor media with the relevant UM729 concentrations or transferred into T cell maturation conditions. On day 21, 35 and 42 of culture iPro T Cells were seeded onto fresh SCT matrix (2.5 μl/cm^2) at a density of 250,000 cells per cm^2. Cells were cultured in T-Cell maturation media either with or without UM729 (0.25-5 μM), with demi-media changes every 3 days for 2 weeks. After 2 weeks of maturation the cells were counted using the NC-250 and phenotyped by flow cytometry using the panel in Table 1.

Where [6] appears, read: UM729 0.25 μM to 1.0 μM in stage 4 media, 21 days.
Setting [7] is: UM729 0.25 μM to 1.0 μM, 21 days.
Setting [8] is: UM729 0.25 μM to 1.0 μM, 35 days (UM729 also in stage 5 cultures).
[9] abbreviates: UM729 5.0 μM or higher, 21 days.

The source of these data is patent US20240327791A1, “METHODS OF T CELL PRODUCTION” (Adaptimmune Limited, priority 2021, published 2024).

Entries after “also recorded” stand apart in the source; their conditions may differ.

In the case of `COC(=O)c1ccc2c(c1)[nH]c1ncnc(NCCCN3CCCCC3)c12` [UM729, methyl 4-(3-piperidin-1-ylpropylamino)-9H-pyrimido[4,5-b]indole-7-carboxylate], the “differentiation to CD4+CD8+ double positive T cells after removal of UM729 (FIG. 10)” value with iPro T cells [1] is listed as “found to be removed; also recorded: will become CD4+CD8+ double positive”. In data set [2] (setting [6]), the “differentiation into / yield of CD7+CD5+ iPro T cells (FIG. 4A)” value is reported as “promotes differentiation into iProT cells; also recorded: increase the yield” and the “percentage of CD7+CD5+ iPro T cells (FIG. 4B)” value is “enriches the percentage of iProT cells; also recorded: enrich the percentage”. In addition, the “fraction of CD8+CD4+ double positive cells (further differentiation to DP T cells)” value in data set [2] (UM729 0.25 μM to 1.0 μM in stage 4 medium, 21 days) is “decreases the fraction of CD8+CD4+ double positive cells; also recorded: inhibited further differentiation”. In addition, in data set [2] (setting [7]), the “lymphoid fraction of the cells” value is on record as “increases the lymphoid fraction” and the “myeloid fraction of the cells (myeloid cellular contamination)” value is “reduces the myeloid fraction; also recorded: reduce this cellular contamination in a dose dependent manner”. Also, in data set [2] (setting [8]), the “differentiation into / percentage of CD7+CD5+ iPro T cells (FIG. 7)” value is “increasing; also recorded: promotes differentiation into iProT cells” and the “fraction / development of CD8+CD4+ double positive cells (FIG. 8)” value was “inhibited in a dose dependent manner; also recorded: decreases the fraction of CD8+CD4+ double positive cells”. Also, in the data set on iPro T cells [3], the “expansion of iPro T cells (FIG. 9)” value is on record as “supported over 42 days; also recorded: greatly enhances the expansion of iProT cells”. Further, in the data set on iPro T cells [4], the “cell proliferation after culture in stage 5 medium (FIG. 12B)” value was “increased cell proliferation” and the “viability after culture in stage 5 medium (FIG. 12A)” value is given as “higher viability”. Besides, the viability of cells result in data set [5] (21 days) is recorded as “maintain viability; also recorded: not to affect the viability”. For the same compound, in data set [5] (35 days), the viability of cells entry is listed as “not to affect the viability; also recorded: maintain viability”. In data set [5] (setting [9]), the “proliferation of total cells” value is given as “reduced or ceases; also recorded: ceased” and the “viability of total cells” value is “reduced or ceases; also recorded: comparably low”. Moreover, the cytotoxic effects result in data set [5] (UM729 at concentrations of 5 μM and above) is on record as “cytotoxic effects were observed”.
